Test results: PubChem BioAssay (NCI)
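Five concentrations, 48 hours, 96-well plates. Abbreviation: GI50, concentration required for 50% inhibition of growth. TGI: total growth inhibition.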

What was measured:
Assay in all cases: inhibition of tumour cell growth, NCI panel, 48 h
COLO 205 colon = test system: COLO 205 colon
SW-620 colon = test system: SW-620 colon
HT29 colon = test system: HT29 colon
SNB-19 CNS = test system: SNB-19 CNS
DU-145 prostate = test system: DU-145 prostate
HL-60(TB) leukemia = test system: HL-60(TB) leukemia
M14 melanoma = test system: M14 melanoma
SNB-75 CNS = test system: SNB-75 CNS
SN12C renal = test system: SN12C renal
MCF7 breast = test system: MCF7 breast
IGROV1 ovarian = test system: IGROV1 ovarian
EKVX NSCLC = test system: EKVX NSCLC
MDA-MB-435 = test system: MDA-MB-435
HCC-2998 colon = test system: HCC-2998 colon
HS 578T breast = test system: HS 578T breast
OVCAR-4 ovarian = test system: OVCAR-4 ovarian
SF-295 CNS = test system: SF-295 CNS
SK-MEL-2 melanoma = test system: SK-MEL-2 melanoma
MDA-MB-231 breast = test system: MDA-MB-231 breast
NCI-H226 lung = test system: NCI-H226 lung
SF-268 CNS = test system: SF-268 CNS
NCI-H460 lung = test system: NCI-H460 lung
TK-10 renal = test system: TK-10 renal
BT-549 breast = test system: BT-549 breast
SR leukemia = test system: SR leukemia
SK-MEL-5 melanoma = test system: SK-MEL-5 melanoma
RPMI-8226 leukemia = test system: RPMI-8226 leukemia
HCT-116 colon = test system: HCT-116 colon
LOX IMVI melanoma = test system: LOX IMVI melanoma
NCI/ADR-RES ovarian = test system: NCI/ADR-RES ovarian
CCRF-CEM leukemia = test system: CCRF-CEM leukemia
OVCAR-5 ovarian = test system: OVCAR-5 ovarian
T-47D breast = test system: T-47D breast
MALME-3M melanoma = test system: MALME-3M melanoma
U251 CNS = test system: U251 CNS
UACC-257 melanoma = test system: UACC-257 melanoma
A549 NSCLC = test system: A549 NSCLC
ACHN renal = test system: ACHN renal
786-0 renal = test system: 786-0 renal
RXF 393 renal = test system: RXF 393 renal
K-562 leukemia = test system: K-562 leukemia
SK-OV-3 ovarian = test system: SK-OV-3 ovarian
PC-3 prostate = test system: PC-3 prostate
NCI-H522 lung = test system: NCI-H522 lung
UO-31 renal = test system: UO-31 renal
HOP-62 NSCLC = test system: HOP-62 NSCLC
KM12 colon = test system: KM12 colon
HOP-92 NSCLC = test system: HOP-92 NSCLC
A498 renal = test system: A498 renal
SK-MEL-28 melanoma = test system: SK-MEL-28 melanoma
HCT-15 colon = test system: HCT-15 colon
SF-539 CNS = test system: SF-539 CNS
UACC-62 melanoma = test system: UACC-62 melanoma
CAKI-1 renal = test system: CAKI-1 renal
NCI-H23 lung = test system: NCI-H23 lung

Compound: O=C(CNc1nc(-c2cccc([N+](=O)[O-])c2)cs1)Nc1cccc([N+](=O)[O-])c1
- GI50 (COLO 205 colon): 1280 nM
- TGI (COLO 205 colon): 2850 nM
- GI50 (SW-620 colon): 372 nM
- TGI (SW-620 colon): 2010 nM
- GI50 (HT29 colon): 744 nM
- TGI (HT29 colon): 2290 nM
- GI50 (SNB-19 CNS): 2220 nM
- TGI (SNB-19 CNS): 6440 nM
- GI50 (DU-145 prostate): 2020 nM
- TGI (DU-145 prostate): 4790 nM
- GI50 (HL-60(TB) leukemia): 2080 nM
- TGI (HL-60(TB) leukemia): 7730 nM
- GI50 (M14 melanoma): 1480 nM
- TGI (M14 melanoma): 3060 nM
- GI50 (SNB-75 CNS): 1070 nM
- TGI (SNB-75 CNS): 2350 nM
- GI50 (SN12C renal): 1740 nM
- TGI (SN12C renal): 5030 nM
- GI50 (MCF7 breast): 942 nM
- TGI (MCF7 breast): 4610 nM
- GI50 (IGROV1 ovarian): 333 nM
- TGI (IGROV1 ovarian): 1330 nM
- GI50 (EKVX NSCLC): 2060 nM
- TGI (EKVX NSCLC): 4740 nM
- GI50 (MDA-MB-435): 1650 nM
- TGI (MDA-MB-435): 3070 nM
- GI50 (HCC-2998 colon): 1780 nM
- TGI (HCC-2998 colon): 3480 nM
- GI50 (HS 578T breast): 1600 nM
- TGI (HS 578T breast): 5280 nM
- GI50 (OVCAR-4 ovarian): 2090 nM
- TGI (OVCAR-4 ovarian): 5070 nM
- GI50 (SF-295 CNS): 2120 nM
- TGI (SF-295 CNS): 5470 nM
- GI50 (SK-MEL-2 melanoma): 1790 nM
- TGI (SK-MEL-2 melanoma): 3310 nM
- GI50 (MDA-MB-231 breast): 2110 nM
- TGI (MDA-MB-231 breast): 4560 nM
- GI50 (NCI-H226 lung): 1040 nM
- TGI (NCI-H226 lung): 3320 nM
- GI50 (SF-268 CNS): 1690 nM
- TGI (SF-268 CNS): 3350 nM
- GI50 (NCI-H460 lung): 1040 nM
- TGI (NCI-H460 lung): 2760 nM
- GI50 (TK-10 renal): 1530 nM
- TGI (TK-10 renal): 5820 nM
- GI50 (BT-549 breast): 627 nM
- TGI (BT-549 breast): 2210 nM
- GI50 (SR leukemia): 419 nM
- TGI (SR leukemia): > 100000 nM
- GI50 (SK-MEL-5 melanoma): 1790 nM
- TGI (SK-MEL-5 melanoma): 3240 nM
- GI50 (RPMI-8226 leukemia): 1470 nM
- TGI (RPMI-8226 leukemia): 4320 nM
- GI50 (HCT-116 colon): 1240 nM
- TGI (HCT-116 colon): 3180 nM
- GI50 (LOX IMVI melanoma): 577 nM
- TGI (LOX IMVI melanoma): 2040 nM
- GI50 (NCI/ADR-RES ovarian): 1470 nM
- TGI (NCI/ADR-RES ovarian): 4590 nM
- GI50 (CCRF-CEM leukemia): 446 nM
- TGI (CCRF-CEM leukemia): > 100000 nM
- GI50 (OVCAR-5 ovarian): 542 nM
- TGI (OVCAR-5 ovarian): 2370 nM
- GI50 (T-47D breast): 1910 nM
- TGI (T-47D breast): 4870 nM
- GI50 (MALME-3M melanoma): 1580 nM
- TGI (MALME-3M melanoma): 3180 nM
- GI50 (U251 CNS): 1710 nM
- TGI (U251 CNS): 5000 nM
- GI50 (UACC-257 melanoma): 1950 nM
- TGI (UACC-257 melanoma): 5080 nM
- GI50 (A549 NSCLC): 2630 nM
- TGI (A549 NSCLC): 9090 nM
- GI50 (ACHN renal): 1300 nM
- TGI (ACHN renal): 2630 nM
- GI50 (786-0 renal): 1940 nM
- TGI (786-0 renal): 4880 nM
- GI50 (RXF 393 renal): 522 nM
- TGI (RXF 393 renal): 2070 nM
- GI50 (K-562 leukemia): 1030 nM
- TGI (K-562 leukemia): > 100000 nM
- GI50 (SK-OV-3 ovarian): 871 nM
- TGI (SK-OV-3 ovarian): 2410 nM
- GI50 (PC-3 prostate): 593 nM
- TGI (PC-3 prostate): 2660 nM
- GI50 (NCI-H522 lung): 1330 nM
- TGI (NCI-H522 lung): 2900 nM
- GI50 (UO-31 renal): 1290 nM
- TGI (UO-31 renal): 2670 nM
- GI50 (HOP-62 NSCLC): 1980 nM
- TGI (HOP-62 NSCLC): 4130 nM
- GI50 (KM12 colon): 1360 nM
- TGI (KM12 colon): 3090 nM
- GI50 (HOP-92 NSCLC): 1700 nM
- TGI (HOP-92 NSCLC): 4000 nM
- GI50 (A498 renal): 1300 nM
- TGI (A498 renal): 2580 nM
- GI50 (SK-MEL-28 melanoma): 1490 nM
- TGI (SK-MEL-28 melanoma): 3080 nM
- GI50 (HCT-15 colon): 582 nM
- TGI (HCT-15 colon): 2810 nM
- GI50 (SF-539 CNS): 1530 nM
- TGI (SF-539 CNS): 3490 nM
- GI50 (UACC-62 melanoma): 662 nM
- TGI (UACC-62 melanoma): 2030 nM
- GI50 (CAKI-1 renal): 715 nM
- TGI (CAKI-1 renal): 2600 nM
- GI50 (NCI-H23 lung): 404 nM
- TGI (NCI-H23 lung): 1760 nM
